Measured values from US12594344B2, “Production of exosomes and uses thereof” (CHINA MEDICAL UNIVERSITY, priority 2021, dated 2026).

How the values were obtained:
[1] = test system: MDA-MB-231 cells; assay: Cytotoxicity of exosomes loaded with miRNA and DOX; type: cell-based; conditions: MDA-MB-231, after 24 h and 48 h
Method: The cell cultured on 96-well with Exo/CARExo for the collection of different time-points, the culture medium was collected and washed with PBS solution to remove any residual medium. Tetrazolium dye MTT (3-(4,5-dimethylthiazol-2-yl)-2,5-diphenyltetrazolium bromide) (Sigma-Aldrich) was mixed fresh medium with ratio of 1:9 and performed to assess for cell viability, which worked by acting on the respiratory chain. After 3 h of reaction, the MTT agent was removed and DMSO was added and left aside for 20 min to dissolve the formazan crystals and redistributed evenly into a 96-well. Absorbance was quantified by measuring at a wavelength of 570 nm to assess for cell viability.
Then, the present invention further increased the test group to six groups: Ctl, Drug, miR, CARExo, CARExo-Drug and CARExo-miR-Drug, to distinguish the validation of cancer cell killing efficacy (FIG. 10). […] Whereas CARExo or Drug only the effect was about 50%. It could be seen that the cocktail of exosomes can effectively and quickly kill cancer cells in the first time.

[2] = molecular target: T1, YAP protein (Homo sapiens, UniProt P46937); assay: YAP inhibitor treatment of HEK293T-laden auxetic scaffold under cyclic tensile stimulation; type: cell-based
T1 construct: endogenous in cells; host or cells: HEK293T
Text: In the present invention, hydrogels with an auxetic structure were fabricated through a template moulding process. Considering that the cell-laden hydrogels with an auxetic structure should be compatible with a tensile bioreactor, three components were used to produce the construct: a Pluronic F-127 solution, GelMa, and cell-laden FGelMa. A positive mould was designed and printed using the BioX bioprinter (Cellink, Sweden) with the Pluronic F-127 (Sigma-Aldrich) solution at a concentration of 30 wt % in distilled water. […] For the mould printing, the stereolithography (STL) model was designed and developed using SolidWorks. The STL file was then converted into a g-code file, which was used to determine the movements and printing paths of the bioprinter, using sliver software. After housing the fugitive ink in a syringe barrel equipped with a luer-locked nozzle with an inner diameter of 150 μm, the fugitive ink was deposited on a glass slide by applying a pneumatic pressure at 170 kPa to form a filament with diameter of approximately 250 μm, using a syringe moving speed of 25 mm/s. The fugitive mould of the auxetic construct was fabricated layer-by-layer (150 μm per layer) until the final thickness of the construct reached 2.1 mm. […]

T1 sequence (P46937 whole entry): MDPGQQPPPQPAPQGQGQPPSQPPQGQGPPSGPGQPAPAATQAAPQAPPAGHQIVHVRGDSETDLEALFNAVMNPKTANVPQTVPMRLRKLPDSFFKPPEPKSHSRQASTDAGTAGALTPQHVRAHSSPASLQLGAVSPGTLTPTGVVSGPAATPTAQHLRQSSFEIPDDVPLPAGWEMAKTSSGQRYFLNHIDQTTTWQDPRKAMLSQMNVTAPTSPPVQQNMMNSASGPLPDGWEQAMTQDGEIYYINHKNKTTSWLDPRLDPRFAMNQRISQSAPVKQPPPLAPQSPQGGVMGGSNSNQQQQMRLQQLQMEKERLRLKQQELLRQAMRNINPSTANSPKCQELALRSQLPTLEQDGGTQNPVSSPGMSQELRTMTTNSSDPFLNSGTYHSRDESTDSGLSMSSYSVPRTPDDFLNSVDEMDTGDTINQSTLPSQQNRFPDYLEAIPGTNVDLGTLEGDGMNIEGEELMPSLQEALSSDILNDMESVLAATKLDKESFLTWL

Q: COc1cccc2c1C(=O)c1c(O)c3c(c(O)c1C2=O)C[C@@](O)(C(=O)CO)C[C@@H]3O[C@H]1C[C@H](N)[C@H](O)[C@H](C)O1 [Drug, doxorubicin] was tested. Which cell killing effect [1] did it give?
A: Its cell killing effect is “about 50%”.

Q: Verteporfin was tested. Which cell morphology [2] did it give?
A: Its cell morphology is “could not self-assemble to form three-dimensional spheroids”.

Q: And the “secretion of exosomes relative to the cyclic tensile stimulation group” value [2]?
A: The value was 5%.
